Here are results for one compound from publication PMC5554537 (Frontiers in Pharmacology, 2017).

A word on the Km: it is the substrate concentration at which the rate is half of its maximum. What is called viability is the share of living cells, or the viability signal relative to a control.

One data set concerns NIH-III mice. From the text: SUPPLEMTENTAL TABLE 7. Mouse toxicity of SN30000 and M14: Histopathology […]
Male and female NIH-III mice aged 6-10 weeks were given a single i.p. dose of SN30000 (186, 248 […]
untreated control for each sex, fixed in 10% neutral buffered formalin at room temperature for 24-48 hr, transferred to 70% ethanol and subsequently paraffin embedded, sectioned and H&E stained for light microscopy . The following tissues/organs were examined: skin, testes, eyeball, brain, liver, lung, stomach, duodenum, heart, spleen, pancreas, colon, femur and joint (incl marrow), skeletal muscle (psoas) and kidney. Results are reported only for positive findings.

A short description of data set [1]: Reductive metabolism in liver S9 preparations. Type of data set: in vitro ADME, NIH-III mice. The settings on record: for Rate of reduction to M14: 20 μg/ml protein. On the procedure:
In vitro hepatic metabolism of SN30000 and M14 was studied using 9,000 g post-mitochondrial supernatants (S9) prepared from livers of female NIH-III mice. Metabolism at 37°C was measured by dilution of S9 to appropriate protein concentrations (measured by BCA protein assay) in sodium/potassium phosphate buffer (67 mM phosphate, pH 7.4) containing 5 mM MgCl2, 1 mM EDTA, 1 mM NADPH, 1 mM NADH and 150 μM test drug. The reaction was terminated by adding an equal volume of ice-cold MeOH and samples were analyzed by LC-MS/MS. Two methods were used to modify the oxygen concentration. Method 1: 96-well plates (reaction volume 0.1 mL/well) were incubated for 30 min on a Eppendorf Thermomixer C (Eppendorf AG, Hamburg, Germany) either under 21% O2 (oxia) or 95% N2/5% CO2 (anoxia) in an anaerobic chamber (Sheldon Manufacturing, Cornelius, OR, United States) as described previously ([Gu et al., 2010]). Method 2: glass vials containing 3 mL final volume were magnetically stirred continuously in a water bath under flowing 5% CO2 containing 0, 0.2, 2, or 20% O2 (certified gas mixtures from BOC Gasses NZ), as detailed previously ([Hicks et al., 2007]), and samples (0.1 mL) were withdrawn at intervals for analysis.
To address whether this reflects an oxygen-sensitive (one-electron reduction) or oxygen-insensitive (two-electron reduction) process, metabolism was compared in NIH-III mouse liver S9 preparations under 20% O2 or anoxia. […] Using low protein concentrations (20 μg/ml) to enable assessment of initial rates, reduction to M14 was similar for anoxic liver S9 preparations from male and female NIH-III mice (10.6 ± 0.2 and 9.2 ± 0.2 nmol/min/mg protein, respectively). […] The liver S9 intrinsic clearance, CLint, was calculated as Vmax/Km for M14 formation under anoxia and scaled to the whole liver based on the (unrealistic) assumption that the liver is entirely anoxic. This upper estimate of in vivo hepatic clearance was then predicted as previously described ([Gu et al., 2011b]) using the free fraction of SN30000 in mouse plasma determined by equilibrium dialysis (Supplementary Table 11).

A short description of the next data set: Urinary excretion. In kind it is in vivo, NIH-III mice. As to conditions: for Urinary excretion, % of administered dose: 24 h.
Data set [2] can be described thus: Redox cycling: non-respiratory O2 consumption and H2O2 generation. In kind it is cell-based. The settings on record: Chinese hamster; CHO/POR cells, 600 µM single bolus; read-out: Cell viability by trypan blue at end of exposure. On the procedure:
The Chinese hamster ovary cell line 51D1.3 (herein called CHO) and a stable transfectant expressing a soluble form of human P450 oxidoreductase (51D1.3/sPOR, herein called CHO/POR) ([Gu et al., 2009]), were grown in spinner flasks in αMEM plus 5% fetal bovine serum. Late log phase cultures were harvested by centrifugation, resuspended at 5 × 10^5 cells/mL in phenol red-free high-glucose DMEM (Invitrogen) supplemented with 4 mM Glutamax-1, 1 mM sodium pyruvate and 5% FBS. Stirred cell suspensions (2 mL) were transferred to an OXYBOROS O2K oxygraph for simultaneous polarographic measurement of non-respiratory O2 consumption and fluorimetric measurement of H2O2 generation as previously ([Hunter et al., 2012]). Bovine liver superoxide dismutase (10 U), horseradish peroxidase (10 U), Amplex UltraRed (50 nmol) and rotenone (1 nmol), all from Molecular Probes Invitrogen (Eugene, OR), were injected and cumulative drug additions (from saline stock solutions) were made every ∼5 min once endogenous rates had stabilized. Signals were recorded every 2 s, and flux derivatives were estimated ∼2 min after each addition using a Savitzky–Golay smoothing filter (40 data point window) in DATLAB version 4.3.
Supplementary Figure 4. Time-dependent changes in oxy gen consu mption and H2O2 formation rates induced by SN30000 in rotenone-inhibited CHO/POR cell suspensions, monitored with an OXYBOROS O2K oxygraph. Conditions of the experiment were identical to Fig. 5 except that SN30000 was added as a single bolus to separate cell suspension, rather than by cu mulative addition. A: Representative traces for oxygen consu mption and H2O2 formation rates for a single culture when SN30000 was added to a final concentration of 600 µM, at 4 min. Peak rates were established within 2 min, followed by a decline to a new steady state at approximately 1/3rd of the maximu m rate. Cell viability was > 97% by try pan […]
killing. […]

Data set [3] in a line: Rectal temperature and MTD in rats. In kind it is in vivo. The settings on record: rat, in vivo, iv; Wistar rats, single i.v. dose.
For a further data set, the system named is Wistar rats. The data set can be described thus: Rectal temperature and MTD in rats. In kind it is in vivo. The settings on record: single i.v. dose of 90 mg/kg, preliminary.
The conditions of data set [4]: plasma.
Method: SN30000, M14 and M18 dosing solutions were prepared fresh in normal saline, filtered through 0.45 μm Acrodisc filters (Pall Life Sciences, Port Washington, NY, United States), protected from light in amber vials, and used within 3 h. Doses are expressed as mg of free base equivalent for SN30000 and M14, and free acid in the case of M18. […] For evaluation of acute toxicity, mice were observed continuously for 3 h after dosing, and their activity rated on a lethargy score from 0 representing no change in activity to 5 representing animals that were moribund and required culling. For MTD studies, the animals were checked daily for clinical signs of toxicity and body weight change for 2 weeks. In some studies rectal temperature changes after dosing were measured using a BAT-12 digital microprobe thermometer (Physitemp Instruments, Clifton, NJ, United States) at the times specified in the figures. Blood samples were collected from mice at various times by cardiac puncture, seconds after cervical dislocation, into ice-cold tubes containing K2EDTA. These were placed on ice immediately after collection and centrifuged (3,000 g, 3 min) within 10 min to harvest plasma. Plasma and tissues were rapidly frozen in liquid nitrogen before storage at -80°C for subsequent bioanalysis.
Concentration-time data were analyzed by non-compartmental analysis using Phoenix WinNonlin (ver 6.4, Build 6.4.0768 Pharsight, United States); all AUC values were extrapolated to infinity using the linear trapezoidal rule. A compartmental model for plasma PK after dosing with SN30000 or M14 was fitted using Phoenix NLME v1.3 with random effects on the metabolite volumes of distribution, and temperature effects based on the observed body temperature at the last measurement time. Temperature effects were added or removed until there was no significant change in the log likelihood. Model fits were further assessed by visual inspection of the residuals and predicted PK.
The subject of the next data set is HT29 tumor cells. Also noted: method as in Hicks et al., 2010. As to conditions: stirred suspensions of HT29 tumor cells; ref Hicks et al., 2010; cited from earlier work.

Read-outs that look alike come from different tables or passages of the source.

Method for Urinary excretion: Mice (20–25 g body weight) were dosed i.p. or by slow bolus (10–20 s) i.v. injection via a lateral tail vein, with co-administration of ^3H-mannitol (0.025 μmol/kg; 67 MBq/g) in some studies as a marker of renal function. For evaluation of acute toxicity, mice were observed continuously for 3 h after dosing, and their activity rated on a lethargy score from 0 representing no change in activity to 5 representing animals that were moribund and required culling. For MTD studies, the animals were checked daily for clinical signs of toxicity and body weight change for 2 weeks. In some studies rectal temperature changes after dosing were measured using a BAT-12 digital microprobe thermometer (Physitemp Instruments, Clifton, NJ, United States) at the times specified in the figures. Blood samples were collected from mice at various times by cardiac puncture, seconds after cervical dislocation, into ice-cold tubes containing K2EDTA. These were placed on ice immediately after collection and centrifuged (3,000 g, 3 min) within 10 min to harvest plasma. Plasma and tissues were rapidly frozen in liquid nitrogen before storage at -80°C for subsequent bioanalysis. Urine samples were collected from mice housed individually in metabolic cages (Minor Metabowl, Jencons, United Kingdom; one animal per cage) with continuous access to food and water.

In the case of `[O-][n+]1nc(CCCN2CCOCC2)[n+]([O-])c2cc3c(cc21)CCC3` [SN30000, 3-(3-Morpholinopropyl)-7,8-dihydro-6H-indeno[5,6-e][1,2,4]triazine 1,4-dioxide], the “Histopathology findings, Kidney” value in the data set with NIH-III mice (186 mg/kg i.p., female, 3 examined) was “Basophilic cortical tubules (2); karyomegaly in tubular epithelium (3); tubular epithelial necrosis (3)”; with NIH-III mice (248 mg/kg i.p., female, 2 examined) it was “Basophilic cortical tubules (2); karyomegaly in tubular epithelium (2); tubular epithelial necrosis (2)”; in the data set with NIH-III mice (248 mg/kg i.p., male, 2 examined), “Basophilic cortical tubules (1); karyomegaly in tubular epithelium (1); tubular epithelial necrosis (1)”; in the data set on NIH-III mice (331 mg/kg i.p., male, 1 examined), “Basophilic cortical tubules (1); karyomegaly in tubular epithelium (1); tubular epithelial necrosis (1)”. In addition, in the data set on NIH-III mice (248 mg/kg i.p., male, 1 examined), the “Histopathology findings, Testes” value was “Degeneration of germinal epithelium (1)”. Moreover, the “Rate of reduction to M14” value was 9.2 ± 0.2 nmol/min/mg protein in data set [1] (anoxic liver S9 from female mice) and 10.6 ± 0.2 nmol/min/mg protein in data set [1] (anoxic liver S9 from male mice). Also, the “Vmax for formation of M14” value in data set [1] (anoxic mouse liver S9) was 71 ± 2 nmol/min/mg protein. For the same compound, the Predicted hepatic clearance is 78.2 mL/min/kg in data set [1] (dispersion model); 83.5 mL/min/kg in data set [1] (parallel tube model); 65.2 mL/min/kg in data set [1] (well-stirred model, from anoxic S9 CLint, liver assumed entirely anoxic). In addition, in data set [1] (female, NIH-III, liver S9 (9,000 g post-mitochondrial supernatant), pH 7.4, anoxic mouse liver S9, read-out: Apparent Km for formation of M14), the Km was found to be 974 ± 71 µM. The “Urinary excretion, % of administered dose” value in the data set “Urinary excretion” (18.6 mg/kg i.p.) is 3.38 ± 0.03%; in “Urinary excretion” (186 mg/kg i.p.), 5.64 ± 0.02%. For the same compound, the “Urinary excretion, % of injected dose” value in “Urinary excretion” (by 24 h, dose not stated) was ~5%. Moreover, the viability at 600 µM in data set [2] is > 97%. This compound also displayed an MTD in data set [3] of 90 mg/kg. Besides, the “Decrease in rectal temperature” value with Wistar rats is ~2.5 °C. For the same compound, the “Apparent Cl” value in data set [4] (i.p. SN30000 1.86 mg/kg) came out at 553 mL/min/kg; in data set [4] (i.p. SN30000 18.6 mg/kg), 447 mL/min/kg; in data set [4] (i.p. SN30000 78.3 mg/kg) it was 126 mL/min/kg; in data set [4] (i.p. SN30000 92.8 mg/kg), 95 mL/min/kg; in data set [4] (i.p. SN30000 186 mg/kg), 59.2 mL/min/kg. For the same compound, the “O2 in solution for 50% inhibition of cytotoxicity” value with HT29 tumor cells was 1.14 ± 0.24 µM.
